Reference: patent US20080200442A1, “Compositions and Methods for Treating, Reducing, Ameliorating, or Preventing Infections of the Ear or Upper Respiratory Tract” (priority 2007, published 2008)
In brackets after ≈: the same amount, converted by molar mass.

system: Salmonella typhimurium (TD); experiment: In vitro anti-bacterial activity (MIC90), Gram-negative reference strains; format: cell-based; conditions: not given
Description: Anti-bacterial activity of the compound having Formula III was tested against several Gram-negative reference bacteria strains and compared to the anti-bacterial activity of three commercially available antibiotics (nadifloxacin, ofloxacin, and sparfloxacin).

| SMILES | MIC90 [mμg/mL] |
| --- | --- |
| C[C@@H]1CN(c2c(F)c(N)c3c(=O)c(C(=O)O)cn(C4CC4)c3c2F)C[C@H](C)N1 [Sparfloxacin] | 0.012 |

system: Bacillis subtilis (ATCC 6633); experiment: In vitro anti-bacterial activity (MIC90), Gram-positive reference strains; format: cell-based; conditions: not given
Description: (§1) Anti-bacterial activity of the compound having Formula III was tested against several Gram-negative reference bacteria strains and compared to the anti-bacterial activity of three commercially available antibiotics (nadifloxacin, ofloxacin, and sparfloxacin). The results are shown in Table 2 as MIC90 values (minimum concentration of the active compound required to inhibit ninety percent of the growth of a specified pathogen, in μg/ml). Anti-bacterial activity of the compound having Formula III was tested against several Gram-positive reference bacteria strains and compared to the anti-bacterial activity of three commercially available antibiotics (nadifloxacin, ofloxacin, and sparfloxacin).

| SMILES | MIC90 [mg/L] |
| --- | --- |
| C[C@@H]1CN(c2c(F)c(N)c3c(=O)c(C(=O)O)cn(C4CC4)c3c2F)C[C@H](C)N1 [Sparfloxacin] | 0.024 (≈ 0.0612 µM) |

system: Sarcina lutea (ATCC 9341); experiment: as above; format: cell-based; conditions: Micrococcus luteus, ATCC9341
Description: as §1

| SMILES | MIC90 [mg/L] |
| --- | --- |
| C[C@@H]1CN(c2c(F)c(N)c3c(=O)c(C(=O)O)cn(C4CC4)c3c2F)C[C@H](C)N1 [Sparfloxacin] | 1.56 (≈ 3.98 µM) |

system: Staphylococcus aureus (ATCC 25933); experiment: as above; format: cell-based; conditions: ATCC25933
Description: as §1

| SMILES | MIC90 [mg/L] |
| --- | --- |
| C[C@@H]1CN(c2c(F)c(N)c3c(=O)c(C(=O)O)cn(C4CC4)c3c2F)C[C@H](C)N1 [Sparfloxacin] | 0.1 (≈ 0.255 µM) |

system: Staphylococcus aureus (FDA 209P); experiment: as above; format: cell-based; conditions: FDA209P
Description: as §1

| SMILES | MIC90 [mg/L] |
| --- | --- |
| C[C@@H]1CN(c2c(F)c(N)c3c(=O)c(C(=O)O)cn(C4CC4)c3c2F)C[C@H](C)N1 [Sparfloxacin] | 0.024 (≈ 0.0612 µM) |

system: Staphylococcus aureus (Smith); experiment: as above; format: cell-based; conditions: not given
Description: as §1

| SMILES | MIC90 [mg/L] |
| --- | --- |
| C[C@@H]1CN(c2c(F)c(N)c3c(=O)c(C(=O)O)cn(C4CC4)c3c2F)C[C@H](C)N1 [Sparfloxacin] | 0.05 (≈ 0.127 µM) |

system: Staphylococcus epidermidis (ATCC 12228); experiment: as above; format: cell-based; conditions: ATCC12228
Description: as §1

| SMILES | MIC90 [mg/L] |
| --- | --- |
| C[C@@H]1CN(c2c(F)c(N)c3c(=O)c(C(=O)O)cn(C4CC4)c3c2F)C[C@H](C)N1 [Sparfloxacin] | 0.2 (≈ 0.51 µM) |

system: Streptococcus faecalis (ATCC 29212); experiment: as above; format: cell-based; conditions: Enterococcus faecalis, ATCC29212
Description: as §1

| SMILES | MIC90 [mg/L] |
| --- | --- |
| C[C@@H]1CN(c2c(F)c(N)c3c(=O)c(C(=O)O)cn(C4CC4)c3c2F)C[C@H](C)N1 [Sparfloxacin] | 0.39 (≈ 0.994 µM) |

system: Streptococcus faecalis (IFO 12964); experiment: as above; format: cell-based; conditions: Enterococcus faecalis, IFO12964
Description: as §1

| SMILES | MIC90 [mg/L] |
| --- | --- |
| C[C@@H]1CN(c2c(F)c(N)c3c(=O)c(C(=O)O)cn(C4CC4)c3c2F)C[C@H](C)N1 [Sparfloxacin] | 0.78 (≈ 1.99 µM) |

system: Streptococcus pneniae (IID 554); experiment: as above; format: cell-based; conditions: IID554
Description: as §1

| SMILES | MIC90 [mg/L] |
| --- | --- |
| C[C@@H]1CN(c2c(F)c(N)c3c(=O)c(C(=O)O)cn(C4CC4)c3c2F)C[C@H](C)N1 [Sparfloxacin] | 0.39 (≈ 0.994 µM) |

system: Streptococcus pneumoniae (IID 553); experiment: as above; format: cell-based; conditions: IID553
Description: as §1

| SMILES | MIC90 [mg/L] |
| --- | --- |
| C[C@@H]1CN(c2c(F)c(N)c3c(=O)c(C(=O)O)cn(C4CC4)c3c2F)C[C@H](C)N1 [Sparfloxacin] | 0.39 (≈ 0.994 µM) |

system: Streptococcus pyogenes (Cook); experiment: as above; format: cell-based; conditions: not given
Description: as §1

| SMILES | MIC90 [mg/L] |
| --- | --- |
| C[C@@H]1CN(c2c(F)c(N)c3c(=O)c(C(=O)O)cn(C4CC4)c3c2F)C[C@H](C)N1 [Sparfloxacin] | 0.39 (≈ 0.994 µM) |

system: Streptococcus pyogenes (IID 698); experiment: as above; format: cell-based; conditions: IID698
Description: as §1

| SMILES | MIC90 [mg/L] |
| --- | --- |
| C[C@@H]1CN(c2c(F)c(N)c3c(=O)c(C(=O)O)cn(C4CC4)c3c2F)C[C@H](C)N1 [Sparfloxacin] | 0.2 (≈ 0.51 µM) |

system: Staphylococcus aureus (ATCC 33591); experiment: In vitro anti-bacterial activity (MIC90), methicillin-resistant Staphylococcus aureus isolates; format: cell-based; conditions: ATCC33591; methicillin-resistant Staphylococcus aureus (ATCC 33591)
Description: (§2) Anti-bacterial activity of the compound having Formula III was tested against several Gram-negative reference bacteria strains and compared to the anti-bacterial activity of three commercially available antibiotics (nadifloxacin, ofloxacin, and sparfloxacin). The results are shown in Table 2 as MIC90 values (minimum concentration of the active compound required to inhibit ninety percent of the growth of a specified pathogen, in μg/ml).
(§3) Anti-bacterial activity of the compound having Formula III was tested against some methicillin-resistant Staphylococcus aureus bacteria strains and compared to the anti-bacterial activity of three commercially available antibiotics (nadifloxacin, ofloxacin, and sparfloxacin).

| SMILES | MIC90 [mg/L] |
| --- | --- |
| C[C@@H]1CN(c2c(F)c(N)c3c(=O)c(C(=O)O)cn(C4CC4)c3c2F)C[C@H](C)N1 [Sparfloxacin] | 0.024 (≈ 0.0612 µM) |

system: Staphylococcus aureus (ATCC 33592); experiment: as above; format: cell-based; conditions: ATCC33592; methicillin-resistant Staphylococcus aureus (ATCC 33592)
Description: as §2, §3

| SMILES | MIC90 [mg/L] |
| --- | --- |
| C[C@@H]1CN(c2c(F)c(N)c3c(=O)c(C(=O)O)cn(C4CC4)c3c2F)C[C@H](C)N1 [Sparfloxacin] | 0.1 (≈ 0.255 µM) |

system: Staphylococcus aureus (ATCC 33593); experiment: as above; format: cell-based; conditions: ATCC33593; methicillin-resistant Staphylococcus aureus (ATCC 33593)
Description: as §2, §3

| SMILES | MIC90 [mg/L] |
| --- | --- |
| C[C@@H]1CN(c2c(F)c(N)c3c(=O)c(C(=O)O)cn(C4CC4)c3c2F)C[C@H](C)N1 [Sparfloxacin] | 0.024 (≈ 0.0612 µM) |

system: Staphylococcus aureus (No. 395); experiment: as above; format: cell-based; conditions: methicillin-resistant Staphylococcus aureus (No. 395)
Description: as §2, §3

| SMILES | MIC90 [mg/L] |
| --- | --- |
| C[C@@H]1CN(c2c(F)c(N)c3c(=O)c(C(=O)O)cn(C4CC4)c3c2F)C[C@H](C)N1 [Sparfloxacin] | 0.05 (≈ 0.127 µM) |

system: Staphylococcus aureus (No. 415); experiment: as above; format: cell-based; conditions: methicillin-resistant Staphylococcus aureus (No. 415)
Description: as §2, §3

| SMILES | MIC90 [mg/L] |
| --- | --- |
| C[C@@H]1CN(c2c(F)c(N)c3c(=O)c(C(=O)O)cn(C4CC4)c3c2F)C[C@H](C)N1 [Sparfloxacin] | 0.2 (≈ 0.51 µM) |

system: Staphylococcus aureus (No. 419); experiment: as above; format: cell-based; conditions: methicillin-resistant Staphylococcus aureus (No. 419)
Description: as §2, §3

| SMILES | MIC90 [mg/L] |
| --- | --- |
| C[C@@H]1CN(c2c(F)c(N)c3c(=O)c(C(=O)O)cn(C4CC4)c3c2F)C[C@H](C)N1 [Sparfloxacin] | 1.56 (≈ 3.98 µM) |

system: Staphylococcus aureus (No. 420); experiment: as above; format: cell-based; conditions: methicillin-resistant Staphylococcus aureus (No. 420)
Description: as §2, §3

| SMILES | MIC90 [mg/L] |
| --- | --- |
| C[C@@H]1CN(c2c(F)c(N)c3c(=O)c(C(=O)O)cn(C4CC4)c3c2F)C[C@H](C)N1 [Sparfloxacin] | 0.78 (≈ 1.99 µM) |

system: Staphylococcus aureus (No. 421); experiment: as above; format: cell-based; conditions: methicillin-resistant Staphylococcus aureus (No. 421)
Description: as §2, §3

| SMILES | MIC90 [mg/L] |
| --- | --- |
| C[C@@H]1CN(c2c(F)c(N)c3c(=O)c(C(=O)O)cn(C4CC4)c3c2F)C[C@H](C)N1 [Sparfloxacin] | 0.39 (≈ 0.994 µM) |

system: Clostridium perfringens (KZ 210); experiment: microbe, parasite or virus in culture; format: cell-based; conditions: not given

| SMILES | MIC90 [mg/L] |
| --- | --- |
| C[C@@H]1CN(c2c(F)c(N)c3c(=O)c(C(=O)O)cn(C4CC4)c3c2F)C[C@H](C)N1 [Sparfloxacin] | 0.39 (≈ 0.994 µM) |

system: Peptostreptococcus micros (GIFU 7824); experiment: In vitro anti-bacterial activity (MIC90), anaerobic reference bacteria; format: cell-based; conditions: Parvimonas micra

| SMILES | MIC90 [mg/L] |
| --- | --- |
| C[C@@H]1CN(c2c(F)c(N)c3c(=O)c(C(=O)O)cn(C4CC4)c3c2F)C[C@H](C)N1 [Sparfloxacin] | 0.78 (≈ 1.99 µM) |

system: Peptostreptococcus magnum (GAI 0664); experiment: as above; format: cell-based; conditions: not given

| SMILES | MIC90 [mg/L] |
| --- | --- |
| C[C@@H]1CN(c2c(F)c(N)c3c(=O)c(C(=O)O)cn(C4CC4)c3c2F)C[C@H](C)N1 [Sparfloxacin] | 0.1 (≈ 0.255 µM) |

system: Propionibacterium acnes (GAI 5419); experiment: as above; format: cell-based; conditions: Cutibacterium acnes

| SMILES | MIC90 [mg/L] |
| --- | --- |
| C[C@@H]1CN(c2c(F)c(N)c3c(=O)c(C(=O)O)cn(C4CC4)c3c2F)C[C@H](C)N1 [Sparfloxacin] | 0.39 (≈ 0.994 µM) |

system: Propionibacterium acnes (ATCC 6919); experiment: as above; format: cell-based; conditions: Cutibacterium acnes, ATCC6919

| SMILES | MIC90 [mg/L] |
| --- | --- |
| C[C@@H]1CN(c2c(F)c(N)c3c(=O)c(C(=O)O)cn(C4CC4)c3c2F)C[C@H](C)N1 [Sparfloxacin] | 0.39 (≈ 0.994 µM) |

system: Propionibacterium acnes (ATCC 11828); experiment: as above; format: cell-based; conditions: Cutibacterium acnes, ATCC11828

| SMILES | MIC90 [mg/L] |
| --- | --- |
| C[C@@H]1CN(c2c(F)c(N)c3c(=O)c(C(=O)O)cn(C4CC4)c3c2F)C[C@H](C)N1 [Sparfloxacin] | 0.78 (≈ 1.99 µM) |

system: Bacteroides fragillis (GAI 0675); experiment: as above; format: cell-based; conditions: not given

| SMILES | MIC90 [mg/L] |
| --- | --- |
| C[C@@H]1CN(c2c(F)c(N)c3c(=O)c(C(=O)O)cn(C4CC4)c3c2F)C[C@H](C)N1 [Sparfloxacin] | 0.78 (≈ 1.99 µM) |

system: Bacteroides thetaiotaomicron (GAI 0659); experiment: as above; format: cell-based; conditions: Bacteroides thetaiotaomicron

| SMILES | MIC90 [mg/L] |
| --- | --- |
| C[C@@H]1CN(c2c(F)c(N)c3c(=O)c(C(=O)O)cn(C4CC4)c3c2F)C[C@H](C)N1 [Sparfloxacin] | 0.78 (≈ 1.99 µM) |

system: Bacteroides vulgatus (GAI 0673); experiment: as above; format: cell-based; conditions: Phocaeicola vulgatus

| SMILES | MIC90 [mg/L] |
| --- | --- |
| C[C@@H]1CN(c2c(F)c(N)c3c(=O)c(C(=O)O)cn(C4CC4)c3c2F)C[C@H](C)N1 [Sparfloxacin] | 0.78 (≈ 1.99 µM) |

system: Veillonella parvula (GAI 5602); experiment: as above; format: cell-based; conditions: not given

| SMILES | MIC90 [mg/L] |
| --- | --- |
| C[C@@H]1CN(c2c(F)c(N)c3c(=O)c(C(=O)O)cn(C4CC4)c3c2F)C[C@H](C)N1 [Sparfloxacin] | 0.2 (≈ 0.51 µM) |
